# Patent publication US9682092B2, “Boron-containing small molecules as anti-inflammatory agents” (ANACOR PHARMACEUTICALS, INC., priority 2006, dated 2017)
row,melting point [°C],SMILES
1,186 to 193,"O=C(Nc1ccc2c(c1)B(O)OC2)c1ccccc1 [C52, N-(1-hydroxy-1,3-dihydrobenzo[c][1,2]oxaborol-6-yl)benzamide]"
2,145 to 151,"OB1OCc2ccc(-n3cc(Sc4ccccc4)c4cc(Cl)ccc43)cc21 [C80, 6-(5-chloro-3-(phenylthio)-1H-indol-1-yl)benzo[c][1,2]oxaborol-1(3H)-ol]"
3,134 to 137,"CCOC(=O)COc1ccc2c(c1)COB2O [C41, Ethyl 2-(1-hydroxy-1,3-dihydrobenzo[c][1,2]oxaborol-5-yloxy)acetate]"
4,241 to 250,"OCc1cccc2c1B(O)OC2 [C64, 7-(hydroxymethyl)benzo[c][1,2]oxaborol-1(3H)-ol]"
5,> 257,"OCc1cc2c(cc1Br)COB2O [C59, 5-bromo-6-(hydroxymethyl)benzo[c][1,2]oxaborol-1(3H)-ol]"
6,102 to 104,"COc1ccc2c(c1)COB2O [C7, 1,3-Dihydro-1-hydroxy-5-methoxy-2,1-benzoxaborole]"
7,85 to 95,"CN(c1ccc2c(c1)COB2O)S(=O)(=O)c1ccccc1 [C30, 5-(N-Methyl-N-phenylsulfonylamino)-1,3-dihydro-1-hydroxy-2,1-benzoxaborole]"
8,162 to 167,"O=[N+]([O-])c1cc2c(cc1F)COB2O [C58, 5-fluoro-6-nitrobenzo[c][1,2]oxaborol-1(3H)-ol]"
9,142 to 145,"Nc1cc2c(cc1F)COB2O [C70, 6-amino-5-fluorobenzo[c][1,2]oxaborol-1(3H)-ol]"
10,111 to 113,"OB1OCc2ccc(Sc3ccc(C(F)(F)F)cc3)cc21 [C92, 6-(4-(trifluoromethyl)phenylthio)benzo[c][1,2]oxaborol-1(3H)-ol]"
11,117 to 120,"CSc1ccc(Sc2ccc3c(c2)B(O)OC3)cc1 [C94, 6-(4-(methylthio)phenylthio)benzo[c][1,2]oxaborol-1(3H)-ol]"
12,158 to 163,"O=C(COc1ccc2c(c1)COB2O)N1CCCCC1 [C46, 2-(1-hydroxy-1,3-dihydrobenzo[c][1,2]oxaborol-5-yloxy)-1-(piperidin-1-yl)ethanone]"
13,157 to 161,"OB1OCc2ccc(Sc3ccc(Cl)cc3)cc21 [C88, 6-(4-chlorophenylthio)benzo[c][1,2]oxaborol-1(3H)-ol]"
14,98 to 105,"OB1OCc2ccc(Oc3ccc(C(F)(F)F)cc3)cc21 [C87, 6-(4-(trifluoromethyl)phenoxy)benzo[c][1,2]oxaborol-1(3H)-ol]"
15,159 to 163,"OB1OCc2ccc(-n3cc(Sc4ccccc4)c4ccccc43)cc21 [C66, 6-(3-(phenylthio)-1H-indol-1-yl)benzo[c][1,2]oxaborol-1(3H)-ol]"
16,124 to 128,"Cc1ccc2c(c1)COB2O [C8, 1,3-Dihydro-1-hydroxy-5-methyl-2,1-benzoxaborole]"
17,176 to 185,"CC(=O)Nc1ccc2c(c1)B(O)OC2 [C63, N-(1-hydroxy-1,3-dihydrobenzo[c][1,2]oxaborol-6-yl)acetamide]"
18,153 to 162,"N#Cc1ccc(Oc2cccc(B(O)O)c2)cc1 [C98, 3-(4-Cyanophenoxy)phenylboronic acid]"
19,149 to 154,"OB1OCc2ccc(-n3ccc4cc(Cl)ccc43)cc21 [C75, 6-(5-chloro-1H-indol-1-yl)benzo[c][1,2]oxaborol-1(3H)-ol]"
20,79 to 88,"[O-][S+](c1ccc(C(F)(F)F)cc1)c1ccc2c(c1)B(O)OC2 (stereo not shown) [C93, 6-(4-(trifluoromethyl)phenylsulfinyl)benzo[c][1,2]oxaborol-1(3H)-ol]"
21,121 to 124,"OB1OCc2ccc(Sc3ccccc3)cc21 [C28, 6-Phenylthio-1,3-dihydro-1-hydroxy-2,1-benzoxaborole]"
22,185 to 189,"OB1OCc2cc3c(cc21)OCO3 [C69, 5,6-methylenedioxybenzo[c][1,2]oxaborol-1(3H)-ol.]"
